Test results reported in US20230286930A1, “N -SUBSTITUTED 4-(1,3-ARYLOXAZOLO-2-YL)PHENYL COMPOUNDS FOR THE TREATMENT AND PROPHYLAXIS OF HEPATITIS B VIRUS INFECTION” (Hoffmann-La Roche Inc., priority 2020, published 2023).

How the values were obtained:
HBsAg = assay: PHH natural infection assay, HBsAg (alphalisa); type: cell-based, HBV; conditions: Hepatitis B virus, read-out: HBsAg IC50
Summary of the method: (§1)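 Primary human hepatocytes infected with HBV at 200 GE/cell with 4% PEG8000 for 24 h, then sandwich-cultured 72 h. Compounds applied in two 72-hour treatments; supernatant HBsAg and HBeAg measured by AlphaLISA.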

[1] = PHH natural infection assay, cytotoxicity (Cell Counting Kit-8); type: cell-based; conditions: human
Summary of the method: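 Primary human hepatocytes infected with HBV (200 GE/cell, 4% PEG8000) for 24 h, then sandwich-cultured 72 h. Compounds were added in two 72-h refreshes. Supernatant HBsAg/HBeAg measured by AlphaLISA and HBV DNA by quantitative fluorescence kit. Cytotoxicity read by CCK-8.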

HBeAg = assay: PHH natural infection assay, HBeAg (alphalisa); type: cell-based, HBV; conditions: Hepatitis B virus, read-out: HBeAg IC50
Summary of the method: as §1

| Compound | IC50 (HBsAg) [nM] | CC50 at 144 h [1] [µM] | IC50 (HBeAg) [nM] |
| --- | --- | --- | --- |
| O=C(Nc1ccc(-c2nc3ccc(F)c(F)c3o2)cc1)C1CCOC1 (stereo not drawn) [Example 82, N-[4-(6,7-difluoro-1,3-benzoxazol-2-yl)phenyl]tetrahydrofuran-3-carboxamide] | 520 | > 100 | 550 |
| O=C(Nc1ccc(-c2nc3ccc(F)c(F)c3o2)cc1)C1CCS(=O)(=O)C1 (stereo not drawn) [Example 83, N-[4-(6,7-difluoro-1,3-benzoxazol-2-yl)phenyl]-1,1-dioxo-thiolane-3-carboxamide] | 1790 | > 100 | 2540 |
| O=C(Nc1ccc(-c2nc3c(F)cc(F)cc3o2)cc1)C1CCOC1 (stereo not drawn) [Example 84, N-[4-(4,6-difluoro-1,3-benzoxazol-2-yl)phenyl]tetrahydrofuran-3-carboxamide] | 1400 | > 100 | 2010 |
| O=C(Nc1ccc(-c2nc3cccc(Cl)c3o2)cc1)C1CCS(=O)(=O)C1 (stereo not drawn) [Example 85, N-[4-(7-chloro-1,3-benzoxazol-2-yl)phenyl]-1,1-dioxo-thiolane-3-carboxamide] | 2680 | > 100 | 1720 |
